Results on 89 molecules are retold here after a melting point compilation (Tetko et al.; mined from patent text by program, amines drawn as free bases though some values may be those of a salt).

Residues, ends and D or L forms follow the SMILES beside them. *: point of attachment. Tos = Cc1ccc(S(=O)(=O)*)cc1; Cam = NC(=O)C*

One may read the melting point as the temperature of the solid-liquid transition. The molecule `O=C(O)COc1ccc(SCc2ccc(OCc3ccc(C(F)(F)F)cc3)cc2)c2c1CCCO2` showed a melting point of 143 to 144 °C.
As to `O=c1[nH]c2ncc(-c3ccc(-n4ccnc4)cc3)nc2n1CC1CCCCC1`, the melting point was 284 to 287 °C.
In the case of `O=C(NCc1ccc(F)cc1)c1ccnc(N2CCN(Cc3ccc(F)cc3F)C2=O)c1` it was 171 to 173 °C; in that of `O=c1c2cnn(CC3CO3)c2ncn1CC1CO1` (centres undefined), 90 to 95 °C.
Consider `O=C(O)CCCC[C@@H]1SC[C@H]2[C@@H]1N(Cc1ccccc1)C(=O)N2Cc1ccccc1`, for which the melting point fell in the range of 88 to 89 °C.
For `CC(C)(CO)NC1=NS(=O)(=O)c2sc(Cl)cc2N1`, the melting point was in the range of 224 to 226 °C.
In the case of `NS(=O)(=O)c1ccc(NC(=O)Nc2ccc(Oc3ccccc3)cc2)cc1` it was 236 to 237 °C.
Consider `COc1cccc(NC(=O)c2cccc([N+](=O)[O-])c2)c1`, for which the melting point lay within 120 to 122 °C.
The molecule `COc1ccc2[nH]cc(-c3cc4c(-c5c(C)noc5C)ccnc4[nH]3)c2c1` gave a melting point of 270 to 271 °C.
On to `COc1ccc(-n2cccc2)c([N+](=O)[O-])c1`, for which the melting point lay within 75.5 to 76.5 °C.
The molecule `COC(=O)c1ccc2cc(C=O)ccc2c1` came in with a melting point of 127 °C.
For the molecule `CC12CCC3C(CCC4CC(=O)CC(C)(O)C43C)C1C(O)CC2=O` (centres undefined), the melting point fell in the range of 227 to 229 °C.
Molecule `CCOc1ccc2c(c1)n(C1CCCCC1)c(=O)n2S(=O)(=O)c1ccc(N(C)C)cc1OC` gave a melting point of 220 °C.
In the case of `CCN(CC)CC1CCCCN1CC(=O)N1c2ccccc2NC(=O)c2cscc21` (centres undefined) it was 163 to 164 °C.
`CCOC(=O)c1cc(C#N)cc(C)n1` registered a melting point of 50 °C.
`ON=C(c1ccc(CN2CCOCC2)cc1)c1cccc2nc(N[C@@H]3CCc4ccccc43)ccc12` gave a melting point of 167 °C.
In turn, `CN(C)c1ccc(/C=C/c2ccc(F)c(F)c2)cc1` showed a melting point of 159 to 160 °C.
`CCOC(=O)c1c(CN2CCOCC2)nc2cc(OC)c(OC)cc2c1-c1ccc(OC)c(OC)c1` returned a melting point of 146 to 147 °C.
With `CCOCC(=O)N(c1c(C)c(C)cc2ccccc12)C(C)C(=O)OC` (centres undefined), the melting point was 96 to 108 °C.
In the case of `CC=CC=NNC(=O)c1cccnc1` it was 144 to 145 °C; in that of `Cc1ccc(S(=O)(=O)N2CCC[C@H]2C(=O)N[C@@H](Cc2ccc(OCC(N)=O)cc2)C(=O)O)cc1` (Tos-Pro-Tyr(Cam)-OH), 195 to 196 °C; in that of `CCCn1c(=O)[nH]c(=O)c2[nH]c(/C=C/c3cc(OC)c(OC)c(OC)c3)nc21`, 286 to 291 °C.
As for `COC(=O)CCCc1cc2cc(Cl)ccc2n1S(=O)(=O)c1ccc(S(=O)(=O)N2CCOCC2)cc1`, the melting point stood at 54 °C.
In the case of `O=C(N[C@H](Cc1ccccc1)C(=O)O)OCc1ccc(COc2ccccc2)cc1` it was 116 to 117 °C; in that of `O=C1c2ccccc2C(=O)c2cc(OCC3CO3)ccc21` (centres undefined), 162 to 167 °C.
Consider `O=[N+]([O-])c1ccc(S(=O)C2CC2)cc1` (racemic), for which the melting point is 104 to 106 °C.
In the case of `CC(C)C/C(=C/CCNC(=O)OCc1ccccc1)C(=O)O` it was 70 to 71 °C; in that of `COc1ccc(CONS(C)(=O)=O)cc1`, 114 to 116 °C; in that of `C[C@H](Cc1ccc2c(c1)cc(C(=O)O)n2Cc1ccccc1)NC[C@H](O)c1cccc(Cl)c1`, 128 to 130 °C.
Regarding `Cc1ccc(-c2nc(Cc3cccc(CC(CO)CO)c3)c(C)o2)cc1`, the melting point was in the range of 114 to 115 °C.
`COc1ccc(C(=O)C=Cc2ccccc2F)cc1` displayed a melting point of 92 to 93 °C.
Molecule `C=CCOc1cc(C(=O)OC)cc(OCC=C)c1NC(C)=O` yielded a melting point of 135 to 137 °C.
In the case of `CN(C)c1ccc(-c2cc3ncc(C#N)c(Cl)c3s2)cc1`, the melting point lay within 270 to 272 °C.
In the case of `O=C1c2ccccc2C(=O)c2c1cc(CO)c1c2CCC1` it was 191 to 192 °C; in that of `Cc1ccc2c(c1)C=C(c1ccc(OCCN3CCCC3)cc1)S2=O` (centres undefined), 150 to 151 °C.
The molecule `O=C(O)Cc1nn(Cc2ccc(Br)cc2)c(=O)c2ccccc12` showed a melting point of 179 to 181 °C.
The molecule `COc1nc2ccccn2c(=O)c1-c1ccc(Cl)cc1` had a melting point of 149 to 151 °C.
In the case of `O=c1cc(Sc2ccccc2)c(-c2nc[nH]n2)nn1-c1ccccc1` it was 245 to 250 °C; in that of `CCc1cn(C2CC(O)C(CNC(=O)Cc3ccccc3Br)O2)c(=O)nc1N` (centres undefined), 236 to 237 °C; in that of `O=C(O)COc1ccc(C(=O)c2cccc(F)c2)c(Cl)c1Cl`, 166 to 168 °C.
`Cc1ccc2nc(-c3ccc(-c4ccccc4)cc3)c(O)c(C(=O)O)c2c1` returned a melting point of 236 to 238 °C.
In the case of `Cc1cc(C(=O)NC(C#N)c2ccccc2)n(C)n1` (centres undefined) it was 135 to 136 °C.
`CCCCC(=O)c1c(-c2ccc3c(Br)c(OCC(=O)O)ccc3c2)sc2ccccc12`: the melting point lay in the range of 164 to 165 °C.
For `CN1CC(CN2CCN(c3ccccc3)CC2)OC1=O` (centres undefined), the melting point lay within 110 to 112 °C.
In turn, `O=C1CCCCCCCCCCCCCCCCC1O` (centres undefined) gave a melting point of 31 to 32 °C.
Molecule `CC(C)(C)OC(=O)C1CSC(C2CC3CCC2C3)N1C(=O)CNC(=O)Nc1cccc(CC(=O)O)c1` (mixture of isomers) displayed a melting point of 115 °C.
`CN=C(NC#N)C1=CC2(CCOCC2)Oc2ccc([N+](=O)[O-])cc21` returned a melting point of 293 to 294 °C.
In the case of `CNc1nc(C(C)c2ccc(-c3ccccc3)c(F)c2)c(C=O)s1` (centres undefined) it was 126 to 128 °C; in that of `CCOC(=O)CCc1cc(-c2ccccc2)nn1Cc1ccc(Cl)cc1Cl`, 91 to 93 °C.
In the case of `CCOc1ccc(S(=O)(=O)N(Cc2ccc(C#N)cc2)[C@@H](CC)c2ccccc2)cc1`, the melting point lay within 97 to 98 °C.
On to `CC(C)[C@@H]1CC[C@@H](C)C[C@@]1(O)CO`, for which the melting point lay within 48 to 50 °C.
In turn, `N[C@@H](CCC(=O)N[C@@H](CS)C(=O)O)C(=O)O` gave a melting point of 187 °C.
In the case of `COCOc1c2c(cc3ccccc13)N(C(=O)OC(C)(C)C)CC2CCl` (centres undefined) it was 99 to 101 °C; in that of `Nc1ccccc1C(=O)Nc1cc2c(cc1F)OCC(=O)N2`, 251 to 252 °C; in that of `CC(C)(C)c1cc(-c2nn(CC#N)c3ncccc23)cc(C(C)(C)C)c1O`, 141 to 143 °C.
The molecule `Cc1ccc(C(=O)Nc2c(NC(=O)CN3CCN(c4ccccc4C#N)CC3)ccc3c2C(=O)c2ccccc2C3=O)cc1` returned a melting point of 238 to 239 °C.
In the case of `CC(=O)n1cc(-c2cccc(Cl)c2Cl)c(C(F)(F)F)c1`, the melting point lay in the range of 65 to 66 °C.
`CCc1nc2cnc3cc(Br)cnc3c2n1CC(C)(C)O` registered a melting point of 207 to 208 °C.
With `C=CCOC(=O)c1cnc2c(cnn2CCC(C)C)c1N`, the melting point lay in the range of 124 to 126 °C.
In the case of `COC(=O)C1=C(C)NC(C)=C(C(=O)OC)C1c1ccc(OC)c(OC)c1` it was 154 to 155 °C.
In the case of `CN=C1CCCc2scnc21` it was 233 to 235 °C; in that of `C[C@@H]1CNC[C@H]2Cc3c(ncc(F)c3C=NO)N21`, 195 to 197 °C.
In turn, `CCCCOCCOc1ccc(-c2ccc3c(c2)C=C(C(=O)Nc2ccc([C@@H](O)c4ccccn4)cc2)CCN3C=O)cc1` yielded a melting point of 110 to 112 °C.
In the case of `CCC(C)(Oc1ccc(-c2ccccc2)cc1OC)C(=O)O` (centres undefined) it was 50 to 55 °C; in that of `CCc1cc(-c2cccnc2)nn1-c1ccc(NC(=O)c2cccnc2)cc1`, 188 to 190 °C; in that of `COc1cc(OCCCCc2cn(-c3ccc(C(F)(F)F)cn3)nc2C(C)C)ccc1CCC(=O)O`, 125 to 126 °C.
In the case of `CC(C)[C@H](NC(=O)CN1CCN(CC(=O)O)C1=O)C(=O)N1CCC[C@H]1C(=O)N[C@H](C(=O)C(F)(F)F)C(C)C` it was 177 to 178 °C; in that of `CCCc1nc(NC)nc(N2CCOCC2)n1`, 131 to 133 °C; in that of `C[C@@H](n1cnc2cc(-c3ccc(N)cc3)sc2c1=O)[C@](O)(Cn1cncn1)c1ccc(F)cc1F`, 184 to 186 °C.
The molecule `Clc1ccc(I)c(CBr)c1` came in with a melting point of 75 to 79 °C.
For `OC(Cn1ccnc1)c1ccc2c(c1)Cc1ccccc1-2` (centres undefined), the melting point is 196 to 199 °C.
The molecule `CC(=O)N1CCCC2=C1CC(c1ccccc1)c1cc(Cl)ccc12` (centres undefined) gave a melting point of 167 to 168 °C.
For the molecule `O=C(N[C@H](Cc1ccc(C(F)(F)F)cc1)[C@@H](O)c1cccc(F)c1)c1ccc(F)c2ccccc12` (racemic), the melting point fell in the range of 200 to 201 °C.
Regarding `CC1CCCN1c1nc(C#N)nc(Cl)c1/C(Br)=C(\Br)[Si](C)(C)C` (centres undefined), the melting point lay in the range of 166 to 168 °C.
The molecule `CCCCCCCNC(=O)Nc1ccc(N(C)C)cc1C(=O)NCC1CCN(C(c2ccc(OC)cc2)c2ccc(OC)cc2)CC1` came in with a melting point of 163 °C.
Regarding `COC1CN(C(=O)c2cc(-c3ccccc3)c(=O)n3nc(C)c4ccsc4c23)C1`, the melting point lay within 169 to 170 °C.
In the case of `C[Si](C)(Oc1ccc(N)cc1)O[Si](C)(C)Oc1ccc(N)cc1` it was 56 to 57 °C; in that of `NCC1(O)CCN(CC2OCCO2)CC1`, 137 °C.
Molecule `CS(=O)(=O)OCc1cc(-c2ccc3c(c2)CCO3)nn(CC2CC2)c1=O` yielded a melting point of 108 to 111 °C.
Consider `O=C(CO)Cc1ccccc1`, for which the melting point lay within 42 to 43 °C.
`COC(=O)c1nn(-c2cccc(C(F)(F)F)c2)cc(OC)c1=O` registered a melting point of 169 to 170 °C.
In the case of `COc1cc(N)c2nccc(C)c2c1OCCCCCc1ccccc1` it was 65 to 66 °C.
Regarding `CCCc1c(OCCCCCCc2cc(OC)c(OC)cc2F)ccc(C(=O)O)c1O`, the melting point lay in the range of 127 to 130 °C.
In the case of `COc1cc(N)c(Cl)cc1C(=O)NN1CCN2CCCCC2C1` (centres undefined) it was 118 to 119 °C; in that of `O=C(C(=O)c1cccc(OCc2ccccc2)c1)c1cc[nH]c1`, 124 to 125 °C.
`CC(=O)Nc1nc(-c2ccc(S(C)=O)cc2)cs1` (centres undefined): the melting point amounted to 274 °C.
In the case of `O=C(NCCCCCO)c1cc([N+](=O)[O-])cc([N+](=O)[O-])c1Cl` it was 100 to 103 °C; in that of `COC(=O)CSC(c1ccccc1)(c1ccccc1)c1ccccc1`, 111 to 115 °C.
In the case of `COc1nc(NC(=O)NS(=O)(=O)c2ccccc2C(=O)OC(C)C)nc(OC)n1` it was 192 to 195 °C.
